# Source: patent US7816400B2 (The University of Hong Kong, priority 2007, dated 2010)
# Entries after “also recorded” stand apart in the source; their conditions may differ.
# Legend:
# human atrial myocytes = experiment: Action potential in human atrial myocytes, perforated patch, current clamp; type: cell-based
# Description: Atrial cells were isolated from specimens of human right atrial appendage obtained from patients (56.1±4.7 years old) undergoing coronary artery bypass grafting. […] All patients were free from supraventricular tachyarrythmias, and the atria were grossly normal at the time of surgery. After excision, the samples were quickly immersed in oxygenated, normally Ca^2+-free cardioplegic solution for transport to the laboratory. Atrial myocytes were enzymatically dissociated as described previously (Tian et al., 2006; Gao et al., 2004). Briefly, the atrial tissue was minced, and gently agitated by continuous bubbling with 100% O2 in a Ca^2+-free Tyrode solution for 15 min (5 min at a time in fresh solutions), and then incubated for 50 min in a similar solution containing 150-200 U/ml collagenase (CLS II, Worthington Biochemical, Freehold, N.J., USA), 0.2 mg/ml protease (type XXIV, Sigma-Aldrich Chemical, St Louis, Mo., USA.) and 1 mg/ml bovine serum albumin (Sigma-Aldrich). After then, the chunks were re-incubated in a fresh enzyme solution of the same composition but no protease. The quantity and quality of isolated cells were monitored under a microscope. When the cell yield appeared optimal, the chunks were suspended in a high K medium containing (mM) 10 KCl, 120 K-glutamate, 10 KH2PO4, 1.8 MgSO4, 10 taurine, 10 HEPES, 0.5 EGTA, 20 glucose, 10 mannitol, pH was adjusted to 7.3 with KOH and gently blown with a pipette. The isolated myocytes were kept at room temperature in the medium at least 1 h before use.
# (§2) A small aliquot of the solution containing the isolated cells was placed in an open perfusion chamber (1-ml) mounted on the stage of an inverted microscope. Myocytes were allowed to adhere to the bottom of the chamber for 5-10 min and were the superfused at 2-3 ml/min with Tyrode solution. Only quiescent rod-shaped cells with clear cross-striations were used. The studies were conducted at room temperature (21-22° C.) for current recording or 36° C. for action potential recording.
# The whole-cell patch-clamp technique was used for electrophysiological recording. Borosilicate glass electrodes (1.2-mm OD) were pulled with a Brown-Flamming puller (model P-97, Sutter Instrument Co, Novato, Calif., USA) and had tip resistances of 2-3 MΩ when filled with pipette solution. […] A 3-M KCl-agar salt bridge was used as reference electrode. The tip potentials were compensated before the pipette touched the cell. After a giga-ohm seal was obtained, the cell membrane was ruptured by gentle suction to establish the whole-cell configuration. […] The series resistance (Rs) was 3-5 MΩ and was compensated by 50-70% to minimize voltage errors. Perforated patch configuration was used for recording action potential in human atrial cells and IKs in HEK 293 cells as described previously (Li et al., 2002b; Dong et al., 2006). Current signals were low-pass filtered at 5 kHz and stored on the hard disk of an IBM compatible computer.
# IK1 = IK1 in guinea pig ventricular myocytes; type: cell-based; settings: 30 and 100 μM
# Procedure: (§1) Guinea pigs of either gender (250-300 g) were sacrificed by cervical dislocation after anesthetization with pentobarbital (40 mg kg, i.p.). The procedure related to the use of animals in this invention was approved by the Animal Care and Use Committee for Teaching and Research of University of Hong Kong in accordance with the Guide for the Care and Use of Laboratory Animals (Institute of Laboratory Animal Resources, Commission on Life Sciences, National Research Council, 1996). Left atrial and ventricular myocytes from guinea pig hearts were enzymatically dissociated by the procedure described previously (Li et al., 2002a) and the isolated myocytes were kept in the K^+ storage medium.
# The whole-cell patch-clamp technique was used for electrophysiological recording. Borosilicate glass electrodes (1.2-mm OD) were pulled with a Brown-Flamming puller (model P-97, Sutter Instrument Co, Novato, Calif., USA) and had tip resistances of 2-3 MΩ when filled with pipette solution. Membrane currents were recorded in voltage-clamp mode using an EPC-9 amplifier and Pulse software (HEKA, Lambrecht, Germany). A 3-M KCl-agar salt bridge was used as reference electrode. The tip potentials were compensated before the pipette touched the cell. […] The cell membrane capacitance (pF) was directly measured using the lock-in module of the Pulse software, and used for normalizing the current in individual cells. […]
# Kv1.5 = molecular target: T1, Kv1.5 (Homo sapiens, UniProt P22460); experiment: Kv1.5 channel block in stably expressing HEK 293 cells; type: cell-based; settings: HEK 293 cells stably expressing Kv1.5, Table 3; read-out: Kv1.5 (IC50)
# T1 construct: expressed in transfected cells
# T1 sequence (P22460 whole entry): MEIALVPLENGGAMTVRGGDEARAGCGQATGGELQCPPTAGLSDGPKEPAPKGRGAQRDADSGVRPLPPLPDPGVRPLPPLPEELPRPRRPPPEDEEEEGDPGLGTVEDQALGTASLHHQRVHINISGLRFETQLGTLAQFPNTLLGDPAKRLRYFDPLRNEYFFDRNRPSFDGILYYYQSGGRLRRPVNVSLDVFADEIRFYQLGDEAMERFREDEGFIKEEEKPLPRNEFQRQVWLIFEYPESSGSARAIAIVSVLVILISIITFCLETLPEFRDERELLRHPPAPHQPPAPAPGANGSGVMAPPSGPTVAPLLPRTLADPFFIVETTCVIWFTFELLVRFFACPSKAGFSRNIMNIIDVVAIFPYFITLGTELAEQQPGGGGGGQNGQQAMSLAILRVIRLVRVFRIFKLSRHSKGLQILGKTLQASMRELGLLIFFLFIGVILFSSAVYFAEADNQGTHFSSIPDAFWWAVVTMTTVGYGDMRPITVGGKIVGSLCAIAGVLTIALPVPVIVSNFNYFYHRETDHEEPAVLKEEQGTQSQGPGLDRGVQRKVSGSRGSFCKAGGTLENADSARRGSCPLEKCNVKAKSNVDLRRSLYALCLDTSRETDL
# Procedure: The established HEK 293 cell lines stably expressing the hERG channel gene, Kv1.5 (Tang et al., 2007), or recombinant human cardiac KCNQ1/KCNE1 channel current (IKs) (Dong et al., 2006) was maintained separately in Dulbecco's modified eagle medium (Invitrogen) supplemented with 10% fetal bovine serum and containing 400 μg/ml G418 (for hERG or Kv1.5 channels) or 100 μg/ml hygromycin (for IKs).
# The whole-cell patch-clamp technique was used for electrophysiological recording. Borosilicate glass electrodes (1.2-mm OD) were pulled with a Brown-Flamming puller (model P-97, Sutter Instrument Co, Novato, Calif., USA) and had tip resistances of 2-3 MΩ when filled with pipette solution. Membrane currents were recorded in voltage-clamp mode using an EPC-9 amplifier and Pulse software (HEKA, Lambrecht, Germany). A 3-M KCl-agar salt bridge was used as reference electrode. The tip potentials were compensated before the pipette touched the cell. After a giga-ohm seal was obtained, the cell membrane was ruptured by gentle suction to establish the whole-cell configuration. The cell membrane capacitance (pF) was directly measured using the lock-in module of the Pulse software, and used for normalizing the current in individual cells. The series resistance (Rs) was 3-5 MΩ and was compensated by 50-70% to minimize voltage errors. Perforated patch configuration was used for recording action potential in human atrial cells and IKs in HEK 293 cells as described previously (Li et al., 2002b; Dong et al., 2006). Current signals were low-pass filtered at 5 kHz and stored on the hard disk of an IBM compatible computer.
# Other derivatives/analogs studied have no effect or a week inhibitory effect on Kv1.5.
# anesthetized dogs = experiment: Experimental vagotonic AF in anesthetized dogs; type: in vivo, dog; settings: for summarized anti-AF efficacy: vehicle 0%; for animals in which sustained AF was not observed: vehicle: sustained AF in 100%; for prevention of AF induction, in words: 5 and 10 mg/kg intraduodenal, P<0.05 vs vehicle
# Procedure: Sustained vagotonic AF was generated in anesthetized dogs by introducing two MAP catheters respectively into the right atrium and the left ventricle along with stimulation of the divided bilateral vagal nerves in the neck. […] Ventricular pacing was performed with 2 ms voltage pulses (2.5 Hz, 150% diastolic threshold) when vagal nerves were continuously stimulated. AF was generated by the BCL 100-ms S1 followed by S2, lasting for 10 min. […] The sustained AF could be repeatedly generated and terminated by stopping vagal stimulation. AF incidence and AF duration were recorded before and at different time points (0.5, 1, 1.5, 2, 3, and 4h) after intraduodenal administration of drugs.
# AF was induced by S1-S2 stimulation at 100 ms BCL with bilateral vagal stimulation (see Methods & FIG. 12) at certain time points during the 0.5 to 4 h period following intraduodenal administration. AF lasted for 10 min and terminated once vagal stimulation was stopped. No AF occurrence or shortened AF duration during the continuous vagal stimulation were considered to represent prevention of AF.
# Ito = molecular target: T2, Ito (Homo sapiens, UniProt Q9UK17); experiment: Ito in human atrial myocytes, whole-cell patch clamp; type: cell-based; settings: for voltage-dependence of steady-state inactivation and activation of Ito, in words: 10 μM
# T2 sequence (Q9UK17 1-655): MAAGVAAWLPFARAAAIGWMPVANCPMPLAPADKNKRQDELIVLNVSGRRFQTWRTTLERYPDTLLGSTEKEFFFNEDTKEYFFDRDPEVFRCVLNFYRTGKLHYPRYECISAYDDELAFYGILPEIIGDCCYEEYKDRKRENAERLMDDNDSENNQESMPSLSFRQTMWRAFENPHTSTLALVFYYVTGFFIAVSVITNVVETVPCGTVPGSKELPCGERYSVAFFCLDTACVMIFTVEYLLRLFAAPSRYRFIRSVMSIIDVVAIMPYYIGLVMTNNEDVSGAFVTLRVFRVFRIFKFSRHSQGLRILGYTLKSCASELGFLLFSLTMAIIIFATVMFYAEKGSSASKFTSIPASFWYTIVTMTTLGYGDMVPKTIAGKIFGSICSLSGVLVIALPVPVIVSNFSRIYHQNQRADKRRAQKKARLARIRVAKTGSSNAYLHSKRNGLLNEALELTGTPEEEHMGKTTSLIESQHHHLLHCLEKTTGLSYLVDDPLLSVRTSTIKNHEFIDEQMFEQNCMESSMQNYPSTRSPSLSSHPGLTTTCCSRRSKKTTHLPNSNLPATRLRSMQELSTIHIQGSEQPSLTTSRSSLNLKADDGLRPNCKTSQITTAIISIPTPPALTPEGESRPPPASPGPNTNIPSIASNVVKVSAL
# T2 sequence (Q9NS61 1-270 partner): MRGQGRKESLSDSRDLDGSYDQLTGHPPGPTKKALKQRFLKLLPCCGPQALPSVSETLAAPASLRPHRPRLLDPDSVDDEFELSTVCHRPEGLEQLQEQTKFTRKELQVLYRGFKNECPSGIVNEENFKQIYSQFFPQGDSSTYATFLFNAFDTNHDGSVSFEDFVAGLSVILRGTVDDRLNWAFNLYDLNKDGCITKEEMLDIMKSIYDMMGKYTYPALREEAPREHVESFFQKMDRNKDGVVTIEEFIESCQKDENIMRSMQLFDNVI
# Procedure: Atrial cells were isolated from specimens of human right atrial appendage obtained from patients (56.1±4.7 years old) undergoing coronary artery bypass grafting. […] After excision, the samples were quickly immersed in oxygenated, normally Ca^2+-free cardioplegic solution for transport to the laboratory. […] Briefly, the atrial tissue was minced, and gently agitated by continuous bubbling with 100% O2 in a Ca^2+-free Tyrode solution for 15 min (5 min at a time in fresh solutions), and then incubated for 50 min in a similar solution containing 150-200 U/ml collagenase (CLS II, Worthington Biochemical, Freehold, N.J., USA), 0.2 mg/ml protease (type XXIV, Sigma-Aldrich Chemical, St Louis, Mo., USA.) and 1 mg/ml bovine serum albumin (Sigma-Aldrich). After then, the chunks were re-incubated in a fresh enzyme solution of the same composition but no protease. The quantity and quality of isolated cells were monitored under a microscope. When the cell yield appeared optimal, the chunks were suspended in a high K medium containing (mM) 10 KCl, 120 K-glutamate, 10 KH2PO4, 1.8 MgSO4, 10 taurine, 10 HEPES, 0.5 EGTA, 20 glucose, 10 mannitol, pH was adjusted to 7.3 with KOH and gently blown with a pipette. The isolated myocytes were kept at room temperature in the medium at least 1 h before use.
# The Ca^2+-free cardioplegic solution for specimen transport contained (in mM) 50 KH2PO4, 8 MgSO4, 5 adenosine, 10 HEPES, 140 glucose, 100 mannitol, 10 taurine, pH was adjusted to 7.3 with KOH. Tyrode solution contained (in mM) 140 NaCl, 5.4 KCl, 1 MgCl2, 1 CaCl2, 0.33 NaH2PO4, 10 HEPES, 10 glucose, pH was adjusted to 7.4 with NaOH. The pipette solution contained (in mM) 20 KCl, 110 K-aspartate, 1 MgCl2, 10 HEPES, 5 EGTA, 0.1 GTP, 5 Na2-phosphocreatine, and 5 Mg2-ATP, pH was adjusted to 7.2 with KOH. For Ito and IKur recording, BaCl2 (200 μM) and CdCl2 (200 μM) were added to the superfusion to block IK1 and ICa.L. Atropine (1.0 μM) was used to minimize possible IK.ACh contamination during the current recording. For ICa.L recording, K^+ in pipette and Tyrode solution was replaced by CsCl. INa was recorded under conditions of K^+-free and a symmetrical Na^+ (5 mM) in pipette and superfusion solutions as described previously (Li at al., 2002a).
# as §2
# ICa.L = ICa.L in guinea pig ventricular myocytes; type: cell-based; settings: 30 and 100 μM
# Procedure: as §1
# The Ca^2+-free cardioplegic solution for specimen transport contained (in mM) 50 KH2PO4, 8 MgSO4, 5 adenosine, 10 HEPES, 140 glucose, 100 mannitol, 10 taurine, pH was adjusted to 7.3 with KOH. Tyrode solution contained (in mM) 140 NaCl, 5.4 KCl, 1 MgCl2, 1 CaCl2, 0.33 NaH2PO4, 10 HEPES, 10 glucose, pH was adjusted to 7.4 with NaOH. […] INa was recorded under conditions of K^+-free and a symmetrical Na^+ (5 mM) in pipette and superfusion solutions as described previously (Li at al., 2002a).
# The whole-cell patch-clamp technique was used for electrophysiological recording. […] Membrane currents were recorded in voltage-clamp mode using an EPC-9 amplifier and Pulse software (HEKA, Lambrecht, Germany). […]
compound,measurement,setting,value
"COc1ccc(-c2cc(=O)c3c(O)cc(O)cc3o2)cc1 [Acacetin, 5,7-dihydroxy-4′-methoxyflavone]","rate dependence of APD prolongation, in words","human atrial myocytes; 10 μM, 0.5 Hz vs 2 Hz",slight rate-dependent increase; also recorded: slight rate-dependent prolongation
same,"action potential duration (APD50, APD75, APD90), in words","human atrial myocytes; 5 and 10 μM, 0.5, 1.0, 2.0 Hz, 36° C.",significantly prolonged
same,"resting membrane potential and amplitude of action potential, in words","human atrial myocytes; 5 or 10 μM, 2 Hz",without affecting
same,"effect on IK1, in words",IK1,no effect; also recorded: no inhibition
same,"effect on IK1, in words",IK1; listed as acacetin,no effects
same,IC50,Kv1.5,3.4 µM
same,summarized anti-AF efficacy,anesthetized dogs; 2.5 mg/kg intraduodenal,50%
same,animals in which sustained AF was not observed,anesthetized dogs; 2.5 mg/kg intraduodenal,50%
same,summarized anti-AF efficacy,anesthetized dogs; 5 mg/kg intraduodenal,85.7%
same,animals in which sustained AF was not observed,anesthetized dogs; 5 mg/kg intraduodenal,57%
same,summarized anti-AF efficacy,anesthetized dogs; 10 mg/kg intraduodenal,85.7%
same,animals in which sustained AF was not observed,anesthetized dogs; 10 mg/kg intraduodenal,57%
same,"prevention of AF induction, in words",anesthetized dogs,significantly prevented AF
same,"prevention of AF induction, in words",anesthetized dogs; listed as acacetin,significantly prevented AF induction
same,"incidence of AF, in words","anesthetized dogs; acacetin 2.5, 5, 10 mg/kg, sotalol 5 mg/kg, 1.5-2.5 h after intraduodenal administration",reduced the incidence of AF
same,"voltage-dependence of steady-state inactivation and activation of Ito, in words",Ito,did not affect
same,"voltage-dependence of steady-state inactivation and activation of Ito, in words",Ito; listed as acacetin,not affected; also recorded: without affecting
same,"inhibition of voltage-dependent Ito, in words","Ito; 3 and 10 μM, with 10 μM verapamil",substantially inhibited; also recorded: reduced
same,"effect on Ito in human atrial myocytes, in words","Ito; extract fraction / isolated compound, concentration not given",blocking effect
same,IC50,"Ito; human atrial myocytes, +40 mV, IKur blocked with 10 μM verapamil, read-out: IC50 for inhibiting Ito",9.2 µM
same,"effect on ICa.L, in words",ICa.L,no effect; also recorded: no inhibition
same,"effect on ICa.L, in words",ICa.L; listed as acacetin,no effects
